Data on 4 molecules can be found in patent US20040192624A1, “Method for treating a disease, disorder or adverse effect caused by an elevated serum concentration of an UGT1A1 substrate” (priority 2003, published 2004).

Data set [1] deals with UDP-glucuronosyltransferase 1A (UGT1A). Briefly: Rat liver microarray, all 5 UGT1A probe sets. To be noted: rats, dose levels of 100 mg/kg and higher, after 1 and 3 days of treatment. In kind it is in vivo, Sprague-Dawley rats.
Data set [2] deals with UDP-glucuronosyltransferase 1 family, member 1. The experiment in a line: Rat liver microarray (Affymetrix Rat U34), induction of probe sequences by ritonavir. In kind it is in vivo, Sprague-Dawley rats. To be noted: 3-Day Studies.
The subject of data set [3] is UDP glucuronosyltransferase, exon 1. The description is as above. Conditions: 3-Day Studies, probe sequence 5 of 5, rat liver.
Data set [4] deals with 3-methylcholanthrene-inducible UDP-glucuronosyltransferase. Described as above. In kind it is in vivo, Sprague-Dawley rats. Conditions: 3-Day Studies, probe sequence 4 of 5, rat liver.
The subject of data set [5] is UGT1A1. The experiment in a line: Hepatic 17α-ethinylestradiol glucuronidation activity in liver microsomes of treated rats. To be noted: both male and female rats. (In general: Liver microsomes are a subcellular fraction often used to study metabolism.)
The target in data set [6] is T1, UGT1A1 isoform (Homo sapiens, UniProt P22309).
T1 sequence (P22309 26-533): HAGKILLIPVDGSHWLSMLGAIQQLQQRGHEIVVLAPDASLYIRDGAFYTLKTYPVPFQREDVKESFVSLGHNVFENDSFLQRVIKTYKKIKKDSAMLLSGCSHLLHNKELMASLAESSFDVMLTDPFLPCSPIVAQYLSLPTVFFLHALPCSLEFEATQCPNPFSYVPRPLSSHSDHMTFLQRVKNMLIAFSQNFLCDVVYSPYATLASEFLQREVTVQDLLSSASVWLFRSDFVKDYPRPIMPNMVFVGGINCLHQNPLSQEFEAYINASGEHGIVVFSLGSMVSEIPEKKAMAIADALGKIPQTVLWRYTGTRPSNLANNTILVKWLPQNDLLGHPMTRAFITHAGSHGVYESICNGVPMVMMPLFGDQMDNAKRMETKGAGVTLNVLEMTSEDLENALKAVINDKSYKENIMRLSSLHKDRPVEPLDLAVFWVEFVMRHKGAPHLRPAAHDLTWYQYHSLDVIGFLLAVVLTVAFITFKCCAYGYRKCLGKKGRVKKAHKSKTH
Conditions: human cells transfected with the UGT1A1 isoform; cited from earlier work.

Data set [7] deals with bilirubin conjugation in human microsomes. To be noted: in vitro system of human microsomes; cited from earlier work.
Data set [8] is described as follows: Ethinylestradiol pharmacokinetics alone and with ritonavir in healthy female volunteers. It counts as in vivo, human. To be noted: for t1/2: ethinylestradiol terminal phase, reported as harmonic mean. On the procedure:
This was an open-label, single-center study in healthy female volunteers who had not received an oral contraceptive for a minimum of six months prior to study start. Subjects received the first dose of oral contraceptive containing 50 μg of ethinyl estradiol on Day 1. […] On Day 15, 300 mg q12h was administered, 400 mg q12h was given on Day 16, and 500 mg q12h was administered thereafter. […] Blood samples for ethinylestradiol concentrations were collected for 48 h after each of the oral contraceptive doses.
Ethinylestradiol was supplied as Demulen@ 1/50-21 tablets (G.D. Searle & Co.) containing 50 μg of ethinylestradiol and 1 mg of ethynodiol diacetate and was administered at 8:00 a.m. on Day 1 and Day 29 with approximately 240 mL of water and within 15 minutes of a meal or snack.
Subjects were confined for 64 hours from Day -1 (day prior to the initial dose) through the first 48 hour blood collection (morning of Day 3) and for 64 hours from Day 28 through the second 48 hour blood collection (morning of Day 31). In addition, subjects came to the clinical testing unit as outpatients for meals, dosing and other study activities twice daily for a total of 14 consecutive days, starting on Day 15. Strenuous activity during confinement was not permitted. During confinement, subjects abstained from all food and beverages except for the scheduled meals and snacks provided in the study. Water was available ad libitum. All meals were standardized with regard to content during confinement. Breakfast, lunch, and dinner were served at approximately 7:30 a.m., 1:00 p.m. and 7:30 p.m. and snacks were provided at approximately 10:00 p.m., except on Days-1 and 28 when the snack was served at 9:45 p.m. An 8 hour fast was required prior to all blood collections for clinical laboratory analyses. The sequence of starting breakfast and dinner on each dosing day during confinement was maintained to the minute such that the time intervals relative to dosing were the same among all subjects.
Blood samples (7 mL) were collected for serum ethinyl estradiol concentrations at the following times relative to the dose on Day 1 and Day 29: prior to (0 h) and at 0.5, 1, 2, 3, 4, 6, 8, 10, 12, 18, 24, 30, 36, and 48 h post-dose. […] All plasma and serum samples were packed with dry ice and shipped to the analytical sites.
Analysis of serum samples for determination of ethinyl estradiol was performed at Pharmaco LSR, Richmond, Va. Ethinylestradiol serum concentrations were determined using a gas chromatography/mass spectrometry (GC/MS) method. 17α-ethinylestradiol and its corresponding isotopically labeled internal standard were isolated from human serum by buffering the serum to pH 8.6 and then extracting with an ethyl ether/methylene chloride mixture. The organic layer was exchanged into aqueous base, washed with hexane and then acidified and extracted with methylene chloride. The extract was dried with sodium carbonate, evaporated and derivatized. The derivatized extract was stored at −20° C. until analysis. Analysis was by capillary GC/MS using negative chemical ionization with selected ion monitoring. This method has been validated over 17α-ethinylestradiol concentrations ranging from 2.00 to 256 pg/mL for a 1.0 mL serum volume, with a minimum quantitation limit of 2.00 pg/mL.
Ethinylestradiol pharmacokinetic parameters were estimated following two single doses, on Day 1 and Day 29, using noncompartmental methods. The pharmacokinetic parameters were calculated using the intended sampling times; all samples were collected within 10% of intended sampling times. Maximal plasma concentration (Cmax,) and time to reach Cmax (Tmax) were obtained directly from individual concentration vs. time profiles. […]

For data set [9], the system named is bilirubin-conjugating activity. To be noted: indinavir treatment; cited from earlier work.
Where [10] appears, read: female, human, serum, po, 50 μg.

In the case of `CC(C)c1nc(CN(C)C(=O)N[C@H](C(=O)N[C@@H](Cc2ccccc2)C[C@H](O)[C@H](Cc2ccccc2)NC(=O)OCc2cncs2)C(C)C)cs1` [ritonavir], the “UGT1A levels for all probe sets” value in data set [1] is listed as “consistent increase”. Moreover, the “Fold change, UDP-glucuronosyltransferase 1 family, member 1” value was 1.56 in data set [2] (75 mg/kg, probe sequence 1 of 5, rat liver); 1.38 in data set [2] (75 mg/kg, probe sequence 2 of 5, rat liver); 1.57 in data set [2] (75 mg/kg, probe sequence 3 of 5, rat liver); 1.67 in [2] (100 mg/kg, probe sequence 1 of 5, rat liver); 1.46 in data set [2] (100 mg/kg, probe sequence 2 of 5, rat liver); 1.61 in data set [2] (100 mg/kg, probe sequence 3 of 5, rat liver). For the same molecule, the “Fold change, UDP-glucuronosyltransferase 1 family, member 1” value is given as 1.54 in data set [2] (125 mg/kg, probe sequence 1 of 5, rat liver); 1.42 in [2] (125 mg/kg, probe sequence 2 of 5, rat liver); 1.65 in data set [2] (125 mg/kg, probe sequence 3 of 5, rat liver). For the same molecule, the results for the “Fold change, UDP glucuronosyltransferase, exon 1.” value in [3] (100 mg/kg) and in [3] (125 mg/kg) were 3.96 and 5.06, respectively. Further, the entries for the “Fold change, 3-methylcholanthrene-inducible UDP-glucuronosyltransferase” value in [4] (75 mg/kg), in data set [4] (100 mg/kg) and in data set [4] (125 mg/kg) were 1.97, 2.26 and 2.25, respectively. In addition, in data set [5], the “effect on glucuronidation of 17α-ethinylestradiol, a UGT1A1 substrate” value is on record as “significantly increase”.
Consider `COC(=O)N[C@H](C(=O)N[C@@H](Cc1ccccc1)[C@@H](O)CN(Cc1ccc(-c2ccccn2)cc1)NC(=O)[C@@H](NC(=O)OC)C(C)(C)C)C(C)(C)C` [atazanavir], for which the “inhibition of bilirubin conjugation” value in data set [6] and in [7] was “micromolar range” each time.
`C#C[C@]1(O)CC[C@H]2[C@@H]3CCc4cc(O)ccc4[C@H]3CC[C@@]21C` [Ethinylestradiol, 17α-ethinylestradiol] showed a t1/2 in data set [8] (alone Day 1, with ritonavir 500 mg q12h Day 29) of 17.0 h. In data set [8] (alone Day 1, with ritonavir 500 mg q12h Day 29, listed as ethinyl estradiol), this molecule registered a t1/2 of 17.0 h. This molecule showed a half-life in data set [8] (female, human, serum, oral, 500 mg) of 17 h. In data set [8] (setting [10]), this molecule displayed an AUC(0-inf) of 1.67 ± 0.377 ng·h/mL and a Cmax of 0.104 ± 0.024 ng/mL. Moreover, in data set [8] (female, human, serum, po, 50 μg, serum ethinylestradiol after single oral contraceptive dose (50 μg), Mean ± SD, n = 23, alone Day 1, with ritonavir 500 mg q12h Day 29), the Tmax is ~4 h.
For the molecule `CC(C)(C)NC(=O)[C@@H]1CN(Cc2cccnc2)CCN1C[C@@H](O)C[C@@H](Cc1ccccc1)C(=O)N[C@H]1c2ccccc2C[C@H]1O` [indinavir], in data set [9], the “cause of elevations in serum-unconjugated bilirubin” value is “direct inhibition of bilirubin-conjugating activity”.

As usually defined, the half-life is how long it takes for the measured level to halve. Low values mean fast loss, high ones slow loss. By AUC(0-inf) is commonly meant the area under the concentration-time curve extrapolated to infinity. Read a low AUC(0-inf) as low exposure. A word on the Cmax: it is the peak of the concentration-time curve. The term Tmax denotes the time from dosing to the highest level.
